How the values were obtained:
Assay type in all cases: cell membranes
Rattus norvegicus [1] = species on record: Rattus norvegicus; assay: Negative allosteric modulation of GABAB receptor in Sprague-Dawley rat brain cortex membrane assessed as decrease in [35S]GTPgammaS binding for 30 mins; conditions: Cerebral cortex, filed as negative allosteric modulator
Rattus norvegicus [2] = species on record: Rattus norvegicus; assay: Negative allosteric modulation of GABAB receptor in Sprague-Dawley rat brain cortex membrane assessed as decrease in [35S]GTPgammaS binding at 25 uM incubated for 30 mins relative to control; parameters: scale not given: the % may be the effect or the level left; conditions: Cerebral cortex, filed as negative allosteric modulator
Rattus norvegicus [3] = species on record: Rattus norvegicus; assay: Antagonist activity at GABAB receptor in Sprague-Dawley rat brain cortex membrane assessed as decrease in 10 uM GABA-stimulated [35S]GTPgammaS binding at 25 uM incubated for 30 mins relative to GABA; parameters: scale not given: the % may be the effect or the level left; conditions: Cerebral cortex, filed as antagonist
Rattus norvegicus [4] = species on record: Rattus norvegicus; assay: Negative allosteric modulation of GABAB receptor in Sprague-Dawley rat brain cortex membrane assessed as decrease in [35S]GTPgammaS binding at 2.5 uM incubated for 30 mins relative to control; parameters: scale not given: the % may be the effect or the level left; conditions: Cerebral cortex, filed as negative allosteric modulator
Rattus norvegicus [5] = species on record: Rattus norvegicus; assay: Antagonist activity at GABAB receptor in Sprague-Dawley rat brain cortex membrane assessed as decrease in 10 uM GABA-stimulated [35S]GTPgammaS binding at 2.5 uM incubated for 30 mins relative to GABA; parameters: scale not given: the % may be the effect or the level left; conditions: Cerebral cortex, filed as antagonist
Rattus norvegicus [6] = species on record: Rattus norvegicus; assay: Antagonist activity at GABAB receptor in Sprague-Dawley rat brain cortex membrane assessed as decrease in 10 uM GABA-stimulated [35S]GTPgammaS binding incubated for 30 mins; conditions: Cerebral cortex, filed as antagonist
Rattus norvegicus [7] = species on record: Rattus norvegicus; assay: Agonist activity at GABAB receptor in Sprague-Dawley rat brain cortex membrane assessed as decrease in 10 uM GABA-stimulated [35S]GTPgammaS binding at 25 uM incubated for 30 mins; parameters: scale not given: the % may be the effect or the level left; conditions: Cerebral cortex, filed as agonist
Rattus norvegicus [8] = species on record: Rattus norvegicus; assay: Agonist activity at GABAB receptor in Sprague-Dawley rat brain cortex membrane assessed as decrease in 10 uM GABA-stimulated [35S]GTPgammaS binding at 2.5 uM incubated for 30 mins; parameters: scale not given: the % may be the effect or the level left; conditions: Cerebral cortex, filed as agonist

Compound	Activity (Rattus norvegicus [1])	Activity (Rattus norvegicus [2])	Activity (Rattus norvegicus [3])	Activity (Rattus norvegicus [4])	Activity (Rattus norvegicus [5])	Activity (Rattus norvegicus [6])	Activity (Rattus norvegicus [7])	Activity (Rattus norvegicus [8])
CSc1ncc(-c2nc(C)no2)c(NC2CCCC2)n1	Dose-dependent effect	33.3%	19%	19%	10.3%	Dose-dependent effect	–	–
Cn1c(Sc2ccc(Cl)cc2)nc(-c2ccccc2)cc1=O	Dose-dependent effect	34.7%	34.1%	12.2%	10.9%	Dose-dependent effect	–	–
Cc1c(O)nc(-c2ccccc2)n(Cc2ccccc2)c1=O	–	8.3%	6.2%	3.3%	5.7%	–	–	–
CCOC(=O)c1cnc(-n2nc(C)cc2C)nc1NC1CCCC1	Dose-dependent effect	44.7%	40.8%	18.3%	14.4%	Dose-dependent effect	–	–
CSc1ncc(-c2nnc(C)o2)c(NC2CCCC2)n1	Dose-dependent effect	37.7%	19%	25.3%	17.1%	–	–	–
Cn1c(Sc2ccccc2)nc(-c2ccccc2)cc1=O	Dose-dependent effect	9.7%	4.7%	4.7%	1.6%	–	–	–
CCCCCn1c(=O)c(C(C)C)c(O)c2cc(C(C)C)ccc21	Dose-dependent effect	37.7%	24.4%	9%	7%	Dose-dependent effect	–	–
O=c1cc(O)nc(-c2ccccc2)n1Cc1ccccc1	–	14%	12.4%	2.4%	0.9%	–	–	–
CC(C)c1c(O)nc(-c2ccccc2)n(Cc2ccccc2)c1=O	–	13%	8%	2.3%	5.2%	–	–	–
CCOC(=O)c1cnc(SC)nc1NC1CCCC1	Dose-dependent effect	29.3%	5.7%	25%	10.3%	–	–	–
O=c1cc(-c2ccccc2)nc(Sc2ccc(Cl)cc2)[nH]1	Dose-dependent effect	14.7%	7.4%	8.7%	4.9%	–	–	–
CC(C)Cn1c(=O)c(C(C)C)c(O)c2cc(C(C)C)ccc21	Dose-dependent effect	41.5%	41.5%	8.7%	13.5%	Dose-dependent effect	–	–
CC(C)Cn1c(=O)c(C(C)C)c(O)c2cc(C(C)(C)C)ccc21	Dose-dependent effect	50.7%	36.2%	23%	15.3%	Dose-dependent effect	–	–
CC(C)c1ccc2c(c1)c(O)c(C(C)C)c(=O)n2CC(C)(C)C	Dose-dependent effect	13.8%	–	3.2%	2%	–	2.6%	–
O=c1cc(-c2ccccc2)nc(Sc2ccccc2)[nH]1	Dose-dependent effect	7.3%	6.1%	3.3%	4.7%	–	–	–
CC(C)c1c(O)c2cc(C(C)(C)C)ccc2n(CC(C)(C)C)c1=O	Dose-dependent effect	22.7%	6.3%	2%	–	–	–	1.7%
Cn1c(Sc2ccc(Cl)cc2)nc(-c2ccc(C(C)(C)C)cc2)cc1=O	Dose-dependent effect	9.7%	3.1%	4%	8.2%	–	–	–
CCCn1c(=O)c(C)c(O)c2cc(OC)ccc21	Dose-dependent effect	10.5%	7.4%	5%	4.3%	–	–	–
Cc1c(O)c2cc(C(C)(C)C)ccc2n(CC(C)C)c1=O	Dose-dependent effect	32.5%	23.6%	13.5%	8.4%	Dose-dependent effect	–	–
